Earlier results as cited in US20210260003A9 (AZIENDE CHIMICHE RIUNITE ANGELINI FRANCESCO A.C.R.A.F. …, priority 2017, published 2021).

Key:
[1] = orally administered

Row | Molecule | peak concentration (time) [1] | solubility in water
1 | CC(C(=O)O)c1cccc(C(=O)c2ccccc2)c1 (centres unmarked) [ketoprofen] | 0.5 to 2 h | –
2 | hydroxypropyl-β-cyclodextrin | – | 600 mg/mL
